Laboratory results taken from BigSolDB 2.1.

NC(=O)c1cccnc1Cl
solubility (mole fraction)
Settings	in 1,4-dioxane	in 2-ethoxyethanol	in 2-methoxyethanol	in DMAc	in DMF	in ethanol	in ethylene glycol	in methanol	in methyl acetate	in water
278.15 K	–	0.0124	0.0205	0.132	0.0981	0.00303	0.00783	0.00747	0.00215	0.00081
283.15 K	–	0.0154	0.0246	0.141	0.107	0.00366	0.00946	0.00893	0.00263	0.00102
288.15 K	0.00632	0.0182	0.0293	0.152	0.115	0.00443	0.0114	0.0104	0.00331	0.00127
293.15 K	0.0077	0.0224	0.0352	0.163	0.126	0.00539	0.0136	0.0122	0.0041	0.00157
298.15 K	0.00958	0.0267	0.0413	0.175	0.137	0.00698	0.0167	0.0148	0.00506	0.00193
303.15 K	0.0118	0.0311	0.0478	0.187	0.149	0.00821	0.0201	0.0171	0.00587	0.00237
308.15 K	0.0136	0.0375	0.0542	0.199	0.161	0.0101	0.024	0.0204	0.00699	0.00291
313.15 K	0.0168	0.0437	0.0642	0.213	0.175	0.0124	0.0283	0.0238	0.00885	0.00351
318.15 K	0.02	0.0524	0.0747	0.227	0.188	0.0147	0.034	0.0278	0.0105	0.00437
323.15 K	0.0244	0.0615	0.0856	0.24	0.202	0.0178	0.0403	0.0324	0.0127	0.00546
